According to ChEMBL document CHEMBL5241107, “Discovery of an eIF4A Inhibitor with a Novel Mechanism of Action” (J Med Chem, 2021):
Active and inactive are the calls of the source. No cut-off for these calls is given here.

Legend:
[1] = molecular target: T1, Eukaryotic initiation factor 4A-I (Homo sapiens, UniProt P60842); assay: Inhibition of human recombinant N-terminal His6-tagged eIF4A expressed in Escherichia coli BL21 CodonPlus cells using ATP and yeast RNA as substrate preincubated with enzyme for 20 mins followed by susbtrate addition and measured after 4 hrs by Malachite green ATPase assay
Reticulocyte [2] = assay: Inhibition of IRES-dependent translation of renilla luciferase in rabbit reticulocyte lysates using bicistronic luciferase reporter [pSP/(CAG)33/FF/HCV/Ren.pA51] at 100 nM incubated for 90 mins by luciferase reporter gene based luminescence analysis; type: functional, subcellular; conditions: Oryctolagus cuniculus
[3] = molecular target: T1, Eukaryotic initiation factor 4A-I; assay: Binding affinity to eIF4A in human A549 cells assessed as increase in thermal stability of the protein at 100 nM incubated for 90 mins by CETSA analysis; type: cell-based
Reticulocyte [4] = assay: Inhibition of eIF4A in rabbit reticulocyte lysate assessed as inhibition of cap-dependent translation of firefly luciferase using bicistronic luciferase reporter [pSP/(CAG)33/FF/HCV/Ren.pA51] at 100 nM incubated for 90 mins by luciferase reporter gene based luminescence analysis; type: subcellular; conditions: Oryctolagus cuniculus
BJAB = assay: Cytotoxicity against human BJAB cells assessed as reduction in cell viability measured after 72 hrs by CellTiter-Glo luminescent assay; type: functional, cell-based
[5] = molecular target: T1, Eukaryotic initiation factor 4A-I; assay: Uncompetitive inhibition of human recombinant N-terminal His6-tagged eIF4A expressed in Escherichia coli BL21 CodonPlus cells assessed as decrease in Km and Vmax of ATP using varying concentrations of ATP and 250 ug/ml yeast RNA as substrate preincubated with enzyme for 20 mins followed by substrate addition and measured after 1 to 7 hrs by Malachite green ATPase assay; conditions: time 80-440 min
[6] = molecular target: T1, Eukaryotic initiation factor 4A-I; assay: Inhibition of helicase activity of human recombinant N-terminal His6-tagged eIF4A expressed in Escherichia coli BL21 CodonPlus cells assessed as increase in double stranded signal using Cy3-labeled RNA strand and unlabeled DNA strand by native PAGE analysis
[7] = molecular target: T1, Eukaryotic initiation factor 4A-I; assay: Inhibition of helicase activity of human recombinant N-terminal His6-tagged eIF4A expressed in Escherichia coli BL21 CodonPlus cells using Cy3-labeled RNA strand and unlabeled DNA strand by native PAGE analysis
[8] = molecular target: T1, Eukaryotic initiation factor 4A-I; assay: Inhibition of helicase activity of human recombinant N-terminal His6-tagged eIF4A expressed in Escherichia coli BL21 CodonPlus cells assessed as decrease in single stranded signal using Cy3-labeled RNA strand and unlabeled DNA strand by native PAGE analysis
[9] = molecular target: T1, Eukaryotic initiation factor 4A-I; assay: Competitive inhibition of human recombinant N-terminal His6-tagged eIF4A expressed in Escherichia coli BL21 CodonPlus cells assessed as […] with constant Vmax of RNA using 250 uM ATP and varying concentration of yeast RNA as substrate preincubated with enzyme for 20 mins followed by substrate addition and measured after 1 to 7 hrs by Malachite green ATPase assay; conditions: time 80-440 min
[10] = molecular target: T1, Eukaryotic initiation factor 4A-I; assay: Displacement of MANT-ATP from human recombinant N-terminal His6-tagged eIF4A expressed in Escherichia coli BL21 CodonPlus cells at 1 mM preincubated with enzyme and yeast RNA for 20 mins followed by MANT-ATP addition for 30 mins by fluorescence polarization assay; conditions: time 50.0 min
Reticulocyte [11] = assay: Inhibition of IRES-dependent translation of renilla luciferase in rabbit reticulocyte lysates using bicistronic luciferase reporter [pSP/(CAG)33/FF/HCV/Ren.pA51] at 600 uM incubated for 90 mins by luciferase reporter gene based luminescence analysis; type: functional, subcellular; conditions: Oryctolagus cuniculus
Reticulocyte [12] = assay: Inhibition of cap-dependent translation of firefly luciferase in rabbit reticulocyte lysates using bicistronic luciferase reporter [pSP/(CAG)33/FF/HCV/Ren.pA51] at 600 uM incubated for 90 mins by luciferase reporter gene based luminescence analysis; type: functional, subcellular; conditions: Oryctolagus cuniculus
[13] = Homo sapiens, BJAB, 72 h, read-out: EC50

T1 sequence (P60842 whole entry): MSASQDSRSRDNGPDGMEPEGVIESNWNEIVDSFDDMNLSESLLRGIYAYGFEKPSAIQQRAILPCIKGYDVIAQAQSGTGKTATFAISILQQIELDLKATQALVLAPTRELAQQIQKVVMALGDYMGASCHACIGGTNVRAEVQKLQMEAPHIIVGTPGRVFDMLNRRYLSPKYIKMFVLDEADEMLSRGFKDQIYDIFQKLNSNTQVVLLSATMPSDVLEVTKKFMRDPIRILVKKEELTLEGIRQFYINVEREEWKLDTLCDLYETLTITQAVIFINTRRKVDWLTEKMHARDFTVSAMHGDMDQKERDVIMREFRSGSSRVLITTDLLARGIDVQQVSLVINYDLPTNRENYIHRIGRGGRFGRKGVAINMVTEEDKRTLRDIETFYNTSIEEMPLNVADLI

Structure (SMILES) | IC50 [1] [µM] | further results
CCCOc1ccccc1-c1ccc(-c2cc(C(=O)O)c3cc([N+](=O)[O-])ccc3n2)o1 | 45.5 | 
CC(C)(C)OC(=O)Nc1ccc(-c2ccc(-c3cc(C(=O)O)c4cc([N+](=O)[O-])ccc4n3)o2)cc1 | 140 | 
CCCCc1ccc(-c2ccc(-c3cc(C(=O)O)c4cc([N+](=O)[O-])ccc4n3)cc2)cc1 | 54.8 | 
CCCOc1cccc(-c2ccc(-c3cc(C(=O)O)c4cc([N+](=O)[O-])ccc4n3)o2)c1 | 62.1 | 
CCCCc1ccc(-c2ccc(-c3cc(C(=O)O)c4cc(I)ccc4n3)o2)cc1 | 41.5 | 
CCCCc1ccc(-c2ccc(-c3cc(C(=O)O)c4ccc(Br)cc4n3)o2)cc1 | 33 | 
CCCCc1ccc(-c2ccc(-c3cc(C(=O)O)c4cc(C)ccc4n3)o2)cc1 | 105 | 
COC(=O)[C@H]1[C@@H](O)[C@@]2(O)c3c(OC)cc(O[C@@H]4O[C@@H]([C@H](O)CO)CO[C@H]4OC)cc3O[C@@]2(c2ccc(OC)cc2)[C@@H]1c1ccccc1 |  | inhibition (Reticulocyte [2]): inactive; Activity [3]: Active; inhibition (Reticulocyte [4]): Active
O=C(O)c1cc(-c2ccc(-c3cccc(-c4ccccc4)c3)o2)nc2ccc([N+](=O)[O-])cc12 | 25.8 | 
CCCCc1ccc(-c2cncc(-c3cc(C(=O)O)c4cc([N+](=O)[O-])ccc4n3)c2)cc1 | > 150 | 
CCCCc1ccc(-c2ccc(-c3cc(C(=O)O)c4cc(Cl)ccc4n3)o2)cc1 | 44 | 
CCCCc1ccc(-c2ccc(-c3cc(C(=O)OCC)c4cc([N+](=O)[O-])ccc4n3)o2)cc1 | > 150 | EC50 (BJAB; [13]): > 10000 nM
O=C(O)c1cc(-c2ccc(-c3ccccc3Oc3ccccc3)o2)nc2ccc([N+](=O)[O-])cc12 | 21 | 
CCCCc1ccc(-c2ccc(-c3cc(C(=O)O)c4cc(N)ccc4n3)o2)cc1 | > 150 | EC50 (BJAB; bjab): Not Active
CCCCc1ccc(-c2ccc(-c3cc(C(=O)O)c4cc(Br)ccc4n3)o2)cc1 |  | inhibition [5]: Active; EC50 (BJAB; [13]): 2130 nM; inhibition [6]: Active; IC50 [7]: 28.7 µM; inhibition [8]: Active; inhibition [9]: Active
O=C(O)c1cc(-c2ccc(-c3ccc4c(c3)OCO4)o2)nc2ccc([N+](=O)[O-])cc12 | > 150 | 
CCCCCc1ccc(-c2ccc(-c3cc(C(=O)O)c4cc([N+](=O)[O-])ccc4n3)o2)cc1 | 8.77 | 
CCCCc1ccc(-c2ccc(-c3cc(C(=O)O)c4ccc(F)cc4n3)o2)cc1 | 46.6 | 
CCCCc1ccc(-c2ccc(-c3cc(C(=O)O)c4cc([N+](=O)[O-])ccc4n3)[nH]2)cc1 | 62.5 | 
O=C(O)c1cc(-c2ccc(-c3ccccc3)o2)nc2ccc([N+](=O)[O-])cc12 | > 150 | 
CCCCc1ccc(-c2ccc(-c3cc(C(=O)O)c4cccc(Cl)c4n3)o2)cc1 | 73.3 | 
CCCCc1ccc(-c2cccc(-c3cc(C(=O)O)c4cc([N+](=O)[O-])ccc4n3)c2)cc1 | 74.1 | 
CCCCc1ccc(-c2ccc(-c3cc(C(=O)O)c4cc(OC(F)(F)F)ccc4n3)o2)cc1 | > 150 | 
CCCCc1ccc(-c2ccc(-c3cc(C(=O)O)c4ccccc4n3)o2)cc1 | > 150 | 
O=C(O)c1cc(-c2ccc(-c3cccc(Oc4ccccc4)c3)o2)nc2ccc([N+](=O)[O-])cc12 | 22.2 | 
CCCCc1ccc(-c2ccc(-c3cc(C(=O)O)c4cc(OC)ccc4n3)o2)cc1 | 53.5 | 
CCCCc1ccc(-c2ccc(-c3cc(C(=O)O)c4cc([N+](=O)[O-])ccc4n3)s2)cc1 | 62.3 | 

Structure (SMILES) | IC50 [1] [µM] | further results
CCCCc1ccc(-c2ccc(-c3cc(C(=O)OCC)c4cc(Br)ccc4n3)o2)cc1 | 129 | 
CCCCc1ccc(-c2ccc(-c3cc(C(=O)O)c4cc(F)ccc4n3)o2)cc1 | 54.1 | 
CCCCc1ccc(-c2ccc(-c3cc(C(=O)O)c4cc(C(C)C)ccc4n3)o2)cc1 | 107 | 
CCCCc1ccc(-c2ccc(-c3cc(C(=O)O)c4cc(Cl)c(Cl)cc4n3)o2)cc1 | 90.1 | 
CCCCc1ccc(-c2cccc(-c3cc(C(=O)O)c4cc([N+](=O)[O-])ccc4n3)n2)cc1 | 85.8 | 
Nc1ncnc2c1ncn2[C@@H]1O[C@H](COP(=O)(O)OP(=O)(O)O)[C@@H](O)[C@H]1O |  | inhibition [10]: Active
C[C@@H]1C[C@@H]([C@H](O)CC2CC(=O)NC(=O)C2)C(=O)[C@@H](C)C1 |  | inhibition (Reticulocyte [11]): Active; inhibition (Reticulocyte [12]): Active
CCCCc1ccc(-c2ccc(-c3cc(C(=O)O)c4cccc(C(F)(F)F)c4n3)o2)cc1 | 26.9 | 
Nc1cccc(-c2ccc(-c3cc(C(=O)O)c4cc([N+](=O)[O-])ccc4n3)o2)c1 | > 150 | EC50 (BJAB; bjab): Not Active
CCCCc1ccc(-c2ccc(-c3cc(C(=O)O)c4cc(NC(C)=O)ccc4n3)o2)cc1 | 126 | EC50 (BJAB; bjab): Not Active
CC(C)(C)OC(=O)Nc1cccc(-c2ccc(-c3cc(C(=O)O)c4cc([N+](=O)[O-])ccc4n3)o2)c1 | 110 | 
O=C(O)c1cc(-c2ccc(-c3ccc(-c4ccccc4)cc3)o2)nc2ccc([N+](=O)[O-])cc12 | 66.1 | 
CCCCc1ccc(-c2ccc(-c3cc(C(=O)O)c4cccc([N+](=O)[O-])c4n3)o2)cc1 |  | EC50 [1]: 27.5 µM
CCCCc1ccc(-c2ccc(-c3cc(C(=O)O)c4cc([N+](=O)[O-])ccc4n3)cn2)cc1 | 60 | 
CCCCc1ccc(-c2ccc(-c3cc(C(=O)O)c4cc(F)c(F)cc4n3)o2)cc1 | 54 | 
Nc1ccc(-c2ccc(-c3cc(C(=O)O)c4cc([N+](=O)[O-])ccc4n3)o2)cc1 | > 150 | EC50 (BJAB; bjab): Not Active
O=C(O)c1cc(-c2ccc(-c3ccc(Oc4ccccc4)cc3)o2)nc2ccc([N+](=O)[O-])cc12 | 12.7 | 
CCCc1ccc(-c2ccc(-c3cc(C(=O)O)c4cc([N+](=O)[O-])ccc4n3)o2)cc1 | 40.9 | 
CCCOc1ccc(-c2ccc(-c3cc(C(=O)O)c4cc([N+](=O)[O-])ccc4n3)o2)cc1 | 45.7 | 
CCCCc1ccc(-c2ccc(-c3cc(C(=O)O)c4ccc(C(F)(F)F)cc4n3)o2)cc1 | 61 | 
CCCCc1ccc(-c2ccc(-c3cc(C(=O)O)c4cc(-c5ccccc5)ccc4n3)o2)cc1 | 124 | 
CCCCc1ccc(-c2ccc(-c3cc(C(=O)O)c4cc(CC)ccc4n3)o2)cc1 | 147 | 
O=C(O)c1cc(-c2ccc(-c3cccc4ccccc34)o2)nc2ccc([N+](=O)[O-])cc12 | 36.7 | 
CCCCc1ccc(-c2ccc(-c3cc(C(=O)O)c4c(Cl)cccc4n3)o2)cc1 | 135 | 
CCCCc1ccc(-c2ccc(-c3cc(C(=O)O)c4cccc(Br)c4n3)o2)cc1 | 23.8 | 
CCCCc1ccc(-c2ccc(-c3cc(C(=O)O)c4cc(C)cc(C)c4n3)o2)cc1 | 111 | 
